The values that follow come from ChEMBL document CHEMBL3994587, “An insight on synthetic and medicinal aspects of pyrazolo[1,5-a]pyrimidine scaffold” (Eur J Med Chem, 2017).

Each structure is given as a SMILES string. Values after ≈ are worked out from the molar mass of the structure shown. Some results are limits rather than exact numbers.

In one experiment the test system is Tritrichomonas foetus. Put plainly: Anti-parasitic activity against Tritrichomonas foetus measured after 48 hrs by microscopic analysis. In kind it is functional.
Experiment [1] concerns the target T1, Translocator protein (Rattus norvegicus, UniProt P16257). In words: Displacement of [3H]PK11195 from PBZR in rat kidney mitochondrial membranes measured after 90 mins by liquid scintillation counting. The class given is cell membranes. Background: Displacement assays read how much labelled ligand stays bound in the presence of the test substance.
For experiment [2], the target named is T1, Translocator protein. In words: Displacement of [3H]Ro5-4864 from PBZR in rat kidney mitochondrial membranes measured after 90 mins by liquid scintillation counting. The class given is cell membranes.
Experiment [3] concerns Staphylococcus aureus. In words: Antibacterial activity against Staphylococcus aureus NCTC 7447 assessed as zone of inhibition at 1 mg/ml measured after 24 hrs by agar diffusion method. The note with it: NCTC 7447, 24 h, read-out: IZ. In kind it is functional.
The test system of experiment [4] is Bacillus subtilis. Put plainly: Antibacterial activity against Bacillus subtilis NCTC 10400 assessed as zone of inhibition at 1 mg/ml measured after 24 hrs by agar diffusion method. The class given is functional. The note with it: NCTC 10400, 24 h, read-out: IZ.
In a further experiment the test system is Sarcina. In words: Antibacterial activity against Sarcina sp. NCTC 1117 assessed as zone of inhibition at 1 mg/ml measured after 24 hrs by agar diffusion method. The class given is functional. The note with it: NCTC 1117, 24 h, read-out: IZ. A general note: In agar diffusion tests the substance spreads into inoculated agar from a disc or well.
The subject of experiment [5] is Escherichia coli. In words: Antibacterial activity against Escherichia coli NCTC 10416 assessed as zone of inhibition at 1 mg/ml measured after 24 hrs by agar diffusion method. In kind it is functional. The note with it: NCTC 10416, 24 h, read-out: IZ.
The test system of the next experiment is Serratia marcescens. Put plainly: Antibacterial activity against Serratia marcescens IMRU 70 assessed as zone of inhibition at 1 mg/ml measured after 24 hrs by agar diffusion method. In kind it is functional. The note with it: IMRU 70, 24 h, read-out: IZ.
Experiment [6] concerns Trichophyton mentagrophytes. In words: Anti-fungal activity against Trichophyton mentagrophytes measured after 48 hrs by broth dilution method. In kind it is functional. The note with it: for MIC: Trichophyton mentagrophytes, 48 h. (In general: Dilution methods test growth across graded concentrations, often in twofold steps.)
In experiment [7] the test system is Staphylococcus aureus. Put plainly: Antibacterial activity against Staphylococcus aureus measured after 18 hrs by agar dilution method. The class given is functional.
In experiment [8] the test system is Bacillus subtilis. In words: Antibacterial activity against Bacillus subtilis measured after 18 hrs by agar dilution method. The class given is functional.
The subject of experiment [9] is Escherichia coli. In words: Antibacterial activity against Escherichia coli measured after 18 hrs by agar dilution method. The class given is functional.
For experiment [10], the system named is Pseudomonas aeruginosa. Put plainly: Antibacterial activity against Pseudomonas aeruginosa measured after 18 hrs by agar dilution method. The class given is functional.
Experiment [11] deals with Candida albicans. Put plainly: Antifungal activity against Candida albicans measured after 18 hrs by agar dilution method. The class given is functional.
For another experiment, the system named is Salmonella typhi. Put plainly: Antibacterial activity against Salmonella typhi MTCC 98 assessed as zone of inhibition at 25 to 150 ug/ml measured after 24 hrs by agar well diffusion method. The class given is functional, Salmonella enterica subsp. enterica serovar Typhi.
In experiment [12] the test system is Escherichia coli. Put plainly: Antibacterial activity against Escherichia coli MTCC 443 assessed as zone of inhibition at 25 to 150 ug/ml measured after 24 hrs by agar well diffusion method. The class given is functional.
The test system of experiment [13] is Bacillus subtilis. In words: Antibacterial activity against Bacillus subtilis MTCC 441 assessed as zone of inhibition at 25 to 150 ug/ml measured after 24 hrs by agar well diffusion method. In kind it is functional.
For experiment [14], the system named is Staphylococcus aureus. In words: Antibacterial activity against Staphylococcus aureus MTCC 96 assessed as zone of inhibition at 25 to 150 ug/ml measured after 24 hrs by agar well diffusion method. In kind it is functional.
For a further experiment, the system named is Aspergillus niger. Put plainly: Antifungal activity against Aspergillus niger assessed as zone of inhibition at 25 to 150 ug/ml measured after 24 to 48 hrs by agar well diffusion method. The class given is functional.
Experiment [15] relates to Candida albicans. In words: Antifungal activity against Candida albicans MTCC 227 assessed as zone of inhibition at 25 to 150 ug/ml measured after 24 to 48 hrs by agar well diffusion method. The class given is functional.
The subject of the next experiment is Penicillium chrysogenum. Put plainly: Antifungal activity against Penicillium chrysogenum MTCC 160 assessed as zone of inhibition at 25 to 150 ug/ml measured after 24 to 48 hrs by agar well diffusion method. The class given is functional.
A further experiment relates to Ehrlich. Put plainly: Cytotoxicity against […] EAC cells by trypan blue staining based microscopic analysis. In kind it is functional, cell-based, Mus musculus.
For another experiment, the system named is Aspergillus flavus. In words: Antifungal activity against Aspergillus flavus MTCC 3008 assessed as zone of inhibition at 25 to 150 ug/ml measured after 24 to 48 hrs by agar well diffusion method. The class given is functional.
The test system of experiment [16] is Staphylococcus aureus. In words: Antibacterial activity against Staphylococcus aureus RCMB 000108 assessed as zone of inhibition at 30 ug/ml. The class given is functional. The note with it: read-out: IZ.
For experiment [17], the system named is Bacillus subtilis. Put plainly: Antibacterial activity against Bacillus subtilis RCMB 000109 assessed as zone of inhibition at 30 ug/ml. The note with it: read-out: IZ. In kind it is functional.
The subject of experiment [18] is Pseudomonas aeruginosa. Put plainly: Antibacterial activity against Pseudomonas aeruginosa RCMB 000103 assessed as zone of inhibition at 30 ug/ml. In kind it is functional. The note with it: read-out: IZ.
The test system of experiment [19] is Escherichia coli. Put plainly: Antibacterial activity against Escherichia coli RCMB 000106 assessed as zone of inhibition at 30 ug/ml. The class given is functional. The note with it: read-out: IZ.

T1 sequence (P16257 whole entry, looked up): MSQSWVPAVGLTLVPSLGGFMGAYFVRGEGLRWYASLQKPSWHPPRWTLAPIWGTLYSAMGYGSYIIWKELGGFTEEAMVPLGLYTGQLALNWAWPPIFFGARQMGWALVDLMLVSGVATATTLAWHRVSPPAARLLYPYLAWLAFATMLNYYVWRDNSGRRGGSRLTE

As a reminder, the MIC is the lowest concentration found to suppress growth. Lower therefore signals inhibition by little substance. Consider `CCOC(=O)c1cn(CC)c2c([N+](=O)[O-])cnn2c1=O`, for which the MLC in the experiment with Tritrichomonas foetus is 3.2 µg/mL (≈ 11.4 µM). In the experiment with Tritrichomonas foetus (Tritrichomonas foetus, 48 h), this molecule displayed an MIC of 1 µg/mL (≈ 3.57 µM).

Broadly, the Ki is the dissociation constant of the complex between target and ligand, obtained from inhibition or displacement. With `CCC(CC)C(=O)Cc1c(-c2ccc(Cl)cc2)nn2c(C)cc(-c3ccccc3)nc12`, the inhibition constant (Ki) was 3.4 nM on Translocator protein [1] and 2.7 nM at Translocator protein [2].

Turning to `COc1ccccc1NS(=O)(=O)c1ccc(/N=N/c2c(=O)[nH]n3c(-c4ncccn4)c(C#N)c(N)nc23)cc1`, the zone of inhibition at 1000 µg/mL in the experiment on Staphylococcus aureus [3] lay in the range of 15 to 18 mm; with Bacillus subtilis [4], 15 to 18 mm; with Sarcina, 12 to 14 mm; in the experiment with Escherichia coli [5], 12 to 14 mm; in the experiment with Serratia marcescens, 12 to 14 mm.

In [6], `CCCCCCCC/C=C\CCCCCCCCNc1cc(C)nc2c(Br)cnn12` registered an MLC of 20 µM (≈ 9.55 µg/mL) and an MIC of 10 µM (≈ 4.78 µg/mL).

In the case of `O=C(O)c1cn(C2CC2)c2cc(N3CCNCC3)c(F)cc2c1=O` [CIPROFLOXACIN], the MIC is at most 25 µg/mL against Staphylococcus aureus [7]; at most 25 µg/mL with Bacillus subtilis [8]; at most 25 µg/mL against Escherichia coli [9]; 400 µg/mL (≈ 1210 µM) against Pseudomonas aeruginosa [10]; at least 800 µg/mL against Candida albicans [11].

Turning to `Cc1nn(-c2ccccc2)c(Cl)c1-c1cc(-c2cc(Cl)ccc2O)nc2c(/N=N/c3ccc(Cl)cc3)c(N)nn12`, the “inhibition zone (IZ)” value with Salmonella typhi turned out to be 15 mm; with Escherichia coli [12] it was 18 mm; in the experiment on Bacillus subtilis [13], 12 mm; in the experiment on Staphylococcus aureus [14], 15 mm; in the experiment on Aspergillus niger, 20 mm; in the experiment with Candida albicans [15] it was 11 mm. For the same molecule, the “inhibition zone (IZ)” value in the experiment on Penicillium chrysogenum is 13 mm.

Regarding `COc1ccc(NS(=O)(=O)c2ccc(/N=N/c3c(=O)[nH]n4c(-c5nccc(C)n5)c(C#N)c(N)nc34)cc2)cc1`, the zone of inhibition at 1000 µg/mL fell in the range of 12 to 14 mm with Staphylococcus aureus [3]; 9 to 11 mm in the experiment with Bacillus subtilis [4]; 15 to 18 mm in the experiment with Sarcina; 12 to 14 mm in the experiment on Escherichia coli [5]; 15 to 18 mm in the experiment on Serratia marcescens.

One may read the IC50 as the concentration that gives 50% inhibition. The low end stands for higher potency, the high end for lower potency. In the experiment with Ehrlich, `Cc1nn2c(-c3ccccc3)ccnc2c1/N=N/c1c(C)n(C)n(-c2ccccc2)c1=O` returned an ED25 of 70.2 µg/mL (≈ 166 µM) and an ED100 of 99.8 µg/mL. For the same molecule, the IC50 in the experiment on Ehrlich (Mus musculus, Ehrlich) was determined as 3.13 µg/mL (≈ 7.39 µM). Besides, in the experiment with Ehrlich (Mus musculus, Ehrlich, read-out: ED50 (the source's name)), the EC50 was determined as 87.1 µg/mL (≈ 206 µM).

In experiment [6], `CCCCCCCCNc1cc(C)nc2ccnn12` registered an MLC of 160 µM (≈ 41.7 µg/mL) and an MIC of 20 µM (≈ 5.21 µg/mL).

In the case of `Cc1cc(O)c(-c2cc(-c3c(C)nn(-c4ccccc4)c3Cl)n3nc(N)c(/N=N/c4ccc(Cl)cc4)c3n2)cc1Cl`, the “inhibition zone (IZ)” value came out at 16 mm in the experiment with Escherichia coli [12]; 18 mm in the experiment with Bacillus subtilis [13]; 14 mm in the experiment on Staphylococcus aureus [14]; 16 mm in the experiment with Aspergillus niger; 10 mm with Aspergillus flavus; 20 mm in the experiment with Candida albicans [15]. The “inhibition zone (IZ)” value in the experiment on Penicillium chrysogenum is 19 mm.

In the case of `CC1(C)S[C@@H]2[C@H](NC(=O)Cc3ccccc3)C(=O)N2[C@H]1C(=O)O` [PENICILLIN G], the zone of inhibition at 30 µg/mL with Staphylococcus aureus [16] is 30.1 mm; with Bacillus subtilis [17], 31.6 mm; with Pseudomonas aeruginosa [18], 28.3 mm; in the experiment with Escherichia coli [19] it was 33.1 mm.

Regarding `CCC(CC)C(=O)Cc1c(-c2ccc(Cl)cc2)nn2c(C)cc(C)nc12`, the inhibition constant (Ki) turned out to be 2.4 nM on Translocator protein [1] and 1.4 nM at Translocator protein [2].

Take `COc1ccccc1NS(=O)(=O)c1ccc(/N=N/c2c(=O)[nH]n3cc(C#N)c(N)nc23)cc1`: the zone of inhibition at 1000 µg/mL in the experiment with Staphylococcus aureus [3] fell in the range of 9 to 11 mm; in the experiment with Bacillus subtilis [4], 15 to 18 mm; in the experiment on Sarcina it was 12 to 14 mm; with Escherichia coli [5], 12 to 14 mm; in the experiment on Serratia marcescens it was 12 to 14 mm.
